Test: Non-clinical bridging studies of toxicity, PK and local tolerability
Details: in vivo
Excerpt: In addition, the FluidCrystal® vehicle and the excipient glycerol dioleate have been evaluated.

SMILES: CCCCCCCC/C=C\CCCCCCCC(=O)OCC(CO)OC(=O)CCCCCCC/C=C\CCCCCCCC (stereo not shown) [glycerol dioleate]
- main effects observed in non-clinical studies: reversible injection-site reactions

Reference: patent publication US20250281569A1, “COMPOSITIONS AND METHODS FOR TREATING NEUROENDOCRINE TUMORS” (CAMURUS AB, priority 2021, published 2025)
